Legend:
[1] = molecular target: T1, human serum albumin (HSA) (Homo sapiens, UniProt P02768); test: Three-dimensional fluorescence spectra of HSA; assay type: binding; details: HSA:compound 1:1, 4 μM, 25 °C
T1 construct: purchased Sigma (St. Louis, MO, USA)
Source text: A useful method for studying drug-HSA interactions is three-dimensional fluorescence spectroscopy, which can offer information about the structural changes to the polypeptide backbone structure and the microenvironment polarity around the Trp and Tyr residues. Peak a (λex = λem) is […], while peak b (2λex = λem) is […]. The change at peak 1 (280/339 nm) reflects a change in the polarity of the microenvironment around the Trp and Tyr residues, and peak 2 (230/336 nm) characterizes the polypeptide backbone structure. […] The fluorescence intensities of both peaks decreased after the addition of derivatives 3a–3d, with a more pronounced decrease observed in the fluorescence intensity of peak 2. […] The changes observed in the 3D spectra correlate with the results of earlier quenching fluorescence experiments. […]
The 3DF spectra of HSA were performed in the absence and presence of compounds 3a–3d using an excitation wavelength range of 200–350 nm and an emission wavelength range of 200–600 nm at room temperature (25 °C). The 3D spectra were recorded for 4 μM of HSA in a 2 mL buffer solution (100 mM NaCl and 10 mM Tris-HCl buffer pH = 7.4) and for the HSA:3a–3d complexes at a concentration ratio 1:1. […]

calf thymus DNA (ctDNA) = test: UV-Vis absorption titration with ctDNA (Benesi-Hildebrand); assay type: binding; details: Tris-HCl pH 7.4, room temperature
Source text: Changes in absorbance intensity (either hyperchromic or hypochromic) and a shift in the peak position (hypsochromicity or batochromicity) are typical spectral properties closely related to the interaction of a drug with DNA [60, 61]. […] The absorption spectra of compounds 3a–3d in the presence of increasing concentrations of ctDNA show hypochromicity (16–51%) and a slight hypsochromic shift (Δλ = 1–9 nm, 3a–3d), findings which indicate that the acridine derivatives have interacted with DNA (Table 3). […]
The binding constant Kb of compounds 3a–3d was determined using the modified Benesi-Hildebrand Equation (6):(6) A0/A−A0=εB/εB + DNA+εB/εB + DNA × 1/KbDNA, where A0 and A are the absorbances of the acridine derivatives in the absence and presence of ctDNA; εB and εB + DNA are the molar extinction coefficients of the acridine derivatives individually and in the bound complex, respectively; Kb is the binding constant; and [DNA] is the concentration of ctDNA. […]
UV-Vis absorption spectrum of the drug-ctDNA complexes were measured on a Varian Cary 100 Bio UV-Vis Spectrophotometer. The UV-Vis spectra of free compounds 3a–3d and drug-ctDNA complexes were recorded at the wavelength range of 220 to 600 nm. […]

T1 sequence (P02768 25-609): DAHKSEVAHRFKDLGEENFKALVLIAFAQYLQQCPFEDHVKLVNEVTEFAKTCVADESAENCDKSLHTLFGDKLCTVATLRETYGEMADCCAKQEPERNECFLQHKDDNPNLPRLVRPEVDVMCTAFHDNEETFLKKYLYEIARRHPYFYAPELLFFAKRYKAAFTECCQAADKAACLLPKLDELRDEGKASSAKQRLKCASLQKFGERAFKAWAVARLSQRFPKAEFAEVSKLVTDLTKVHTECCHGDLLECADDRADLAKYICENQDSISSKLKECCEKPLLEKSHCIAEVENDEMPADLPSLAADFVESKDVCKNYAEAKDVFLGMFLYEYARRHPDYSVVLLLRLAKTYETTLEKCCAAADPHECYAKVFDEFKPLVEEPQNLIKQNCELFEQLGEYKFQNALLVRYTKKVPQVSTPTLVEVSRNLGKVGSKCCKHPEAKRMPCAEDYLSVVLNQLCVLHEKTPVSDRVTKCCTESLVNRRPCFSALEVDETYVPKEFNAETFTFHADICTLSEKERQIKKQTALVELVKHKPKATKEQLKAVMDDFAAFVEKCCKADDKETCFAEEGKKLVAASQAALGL

Row | SMILES | blue shift of peak 1 (280/339 nm) [1] | blue shift of peak 2 (230/336 nm) [1] | Kb, binding constant with ctDNA (calf thymus DNA (ctDNA))
1 | O=C(N/N=C/c1cccc2cc3ccccc3nc12)c1ccccc1 [3a, N′-[(E)-(Acridin-4-yl)methylidene]benzohydrazide] | 8 nm | 10 nm | 
2 | O=C(N/N=C/c1cccc2cc3ccccc3nc12)c1ccc(F)cc1 [3b, N′-[(E)-Acridin-4-ylmethylidene]-4-fluorobenzohydrazide] |  |  | 3180 M⁻¹

Source: paper PMC9100673, “Acridine Based N-Acylhydrazone Derivatives as Potential Anticancer Agents: Synthesis, Characterization and ctDNA/HSA Spectroscopic Binding Properties” (Molecules, 2022)
